# In PMC11946679 (Toxics, 2025):
# System: human peripheral blood lymphocytes
# Experiment: CBMN cytome assay: micronuclei, nuclear buds, nucleoplasmic bridges
# Conditions: 3 h
# [1] = 1× + IRI 9.0 mg/L, propolis 1.36 mg/L, galangin 0.02 mg/L
# [2] = 1× alone, propolis 1.36 mg/L, galangin 0.02 mg/L
# [3] = 5× + IRI 9.0 mg/L, propolis 6.8 mg/L, galangin […]
# [4] = 5× alone, propolis 6.8 mg/L, galangin […]
# Method: The CBMN assay was performed in line with standard protocols [8, 23].
# To collect the blood sample, lithium heparin-coated tubes were used (BD vacutainer® with LH 170 I.U., Becton Dickinson: BD-Plymouth PL6 78P, UK).
# There were 15 experimental groups altogether. The same experimental design was applied in two independent trials, each of which had two replicate cultures per experimental group; therefore, four replicate cultures for every single experimental group were established.
# To induce cell division prior to exposure to the test chemicals, lymphocytes were stimulated with the mitogen phytohemagglutinin (PHA). Cultures were kept in a humidified atmosphere of 5% CO2 at 37 °C.
# They started 41 h after PHA stimulation and lasted for 3 h at 37 °C.
# Upon completion of exposure, lymphocyte cultures were centrifuged at 100× g. […] This procedure was timed for the 44th hour of lymphocyte cultivation, which represents a critical point for adding of cytoB to hinder cytokinesis and obtain binucleated cells. All treated and control cultures were further maintained at 37 °C until the end of the 72nd hour of cultivation, according to the above-mentioned standard protocols.
# The first step in the preparation of microscopic slides was harvesting of cells by centrifugation (100× g), followed by treatment with 0.075 mol/L potassium chloride and succeeded by centrifugation. The sediments of cells were repeatedly fixed with methanol/acetic acid (3:1 v/v) followed by centrifugation. The final lymphocyte suspension was pipetted onto clean microscope slides. For staining, 5% aqueous solution of Giemsa dye was used. Slides were screened using a light microscope at 1000× magnification. For morphological discrimination of micronuclei (MNi), nuclear buds (NBs), nucleoplasmic bridges (NPBs) and cells in apoptosis or necrosis, the criteria by Fenech et al. [25] and Fenech [23] were applied. To determine their frequencies, per experimental point, a total of 4 × 1000 binucleated (BN) cells were scored.
# This value was first used to estimate the number of MNi required to reach a decrease and an increase considered significant at a 5% significance level.
smiles,measurement,setting,value
O=c1c(O)c(-c2ccccc2)oc2cc(O)cc(O)c12 [Galangin],Distribution of BNMN Cells with 1 MN,[1],"45 c,p1,p5,p10,g1,g5,g10,p1+iri, p5+iri, p10+iri"
same,Distribution of BNMN Cells with 2 MN,[1],1
same,Distribution of BNMN Cells with 3 MN,[1],0
same,Distribution of BNMN Cells with 4 MN,[1],0
same,Distribution of BNNB Cells with 1 NB,[1],"33 c,p1,p5, p10,g1,g5,g10, p1+iri, p10+iri"
same,Distribution of BNNB Cells with 2 NB,[1],2
same,Distribution of BNNPB Cells with 1 NPB,[1],0
same,Distribution of BNNPB Cells with 2 NPB,[1],0
same,Micronuclei (MNi) Mean (BNMN)1000 ± SD,[1],"11.50 ± 3.70 c,p1,p5,p10,g1,g5, g10,p1+iri, p5+iri, p10+iri"
same,Micronuclei (MNi) Mean (MNi)1000 ± SD,[1],"11.75 ± 4.11 c,p1,p5,p10,g1,g5,g10, p1+iri"
same,Micronuclei (MNi) Total (BNMN)4000,[1],"46 c,p1,p5,p10,g1,g5,g10, p1+iri, p5+iri, p10+iri"
same,Micronuclei (MNi) Total (MNi)4000,[1],"47 c,p1,p5,p10,g1,g5, g10,p1+iri"
same,Nuclear Buds (NBs) Mean (BNNB)1000 ± SD,[1],"8.75 ± 0.96 c,p1,p5,p10, g1,g5,g10, p1+iri,p5+iri, p10+iri"
same,Nuclear Buds (NBs) Mean (NBs)1000 ± SD,[1],"9.25 ± 1.50 c,p1,p5,p10,g1,g5,g10, p1+iri,p5+iri, p10+iri"
same,Nuclear Buds (NBs) Total (BNNB)4000,[1],"35 c,p1,p5,p10, g1,g5,g10, p1+iri,p5+iri,p10+iri"
same,Nuclear Buds (NBs) Total (NBs)4000,[1],"37 c,p1,p5, p10,g1,g5, g10, p1+iri, p5+iri, p10+iri"
same,Nucleoplasmic Bridges (NPBs) Mean (BNNPB)1000 ± SD,[1],0
same,Nucleoplasmic Bridges (NPBs) Mean (NPBs)1000 ± SD,[1],0
same,Nucleoplasmic Bridges (NPBs) Total (BNNPB)4000,[1],0
same,Nucleoplasmic Bridges (NPBs) Total (NPBs)4000,[1],0
same,Micronuclei (MNi) Mean (MNi)1000 ± SD,"1× + IRI 9.0 mg/L, propolis 1.36 mg/L, galangin 0.02 mg/L, listed as galangin",11.75
same,Distribution of BNMN Cells with 1 MN,[2],8
same,Distribution of BNMN Cells with 2 MN,[2],0
same,Distribution of BNMN Cells with 3 MN,[2],0
same,Distribution of BNMN Cells with 4 MN,[2],0
same,Distribution of BNNB Cells with 1 NB,[2],7
same,Distribution of BNNB Cells with 2 NB,[2],0
same,Distribution of BNNPB Cells with 1 NPB,[2],0
same,Distribution of BNNPB Cells with 2 NPB,[2],0
same,Micronuclei (MNi) Mean (BNMN)1000 ± SD,[2],2.00 ± 0.82
same,Micronuclei (MNi) Mean (MNi)1000 ± SD,[2],2.00 ± 0.82
same,Micronuclei (MNi) Total (BNMN)4000,[2],8
same,Micronuclei (MNi) Total (MNi)4000,[2],8
same,Nuclear Buds (NBs) Mean (BNNB)1000 ± SD,[2],1.75 ± 0.50
same,Nuclear Buds (NBs) Mean (NBs)1000 ± SD,[2],1.75 ± 0.50
same,Nuclear Buds (NBs) Total (BNNB)4000,[2],7
same,Nuclear Buds (NBs) Total (NBs)4000,[2],7
same,Nucleoplasmic Bridges (NPBs) Mean (BNNPB)1000 ± SD,[2],0
same,Nucleoplasmic Bridges (NPBs) Mean (NPBs)1000 ± SD,[2],0
same,Nucleoplasmic Bridges (NPBs) Total (BNNPB)4000,[2],0
same,Nucleoplasmic Bridges (NPBs) Total (NPBs)4000,[2],0
same,Micronuclei (MNi) Mean (MNi)1000 ± SD,"1× alone, propolis 1.36 mg/L, galangin 0.02 mg/L, listed as galangin",2.00
same,Distribution of BNMN Cells with 1 MN,[3],"43 c,p1,p5, p10,g1,g5, g10,p1+iri, p5+iri, p10+iri"
same,Distribution of BNMN Cells with 2 MN,[3],1
same,Distribution of BNMN Cells with 3 MN,[3],0
same,Distribution of BNMN Cells with 4 MN,[3],0
same,Distribution of BNNB Cells with 1 NB,[3],"32 c,p1,p5, p10,g1, g5,g10, p1+iri, p10+iri"
same,Distribution of BNNB Cells with 2 NB,[3],0
same,Distribution of BNNPB Cells with 1 NPB,[3],0
same,Distribution of BNNPB Cells with 2 NPB,[3],0
same,Micronuclei (MNi) Mean (BNMN)1000 ± SD,[3],"11.00 ± 0.82 c,p1,p5,p10,g1,g5, g10,p1+iri, p5+iri"
same,Micronuclei (MNi) Mean (MNi)1000 ± SD,[3],"11.25 ± 0.96 c,p1,p5,p10,g1,g5,g10, p1+iri"
same,Micronuclei (MNi) Total (BNMN)4000,[3],"44 c,p1,p5,p10,g1,g5,g10, p1+iri, p5+iri"
same,Micronuclei (MNi) Total (MNi)4000,[3],"45 c,p1,p5,p10,g1,g5, g10,p1+iri"
same,Nuclear Buds (NBs) Mean (BNNB)1000 ± SD,[3],"8.00 ± 1.41 c,p1,p5,p10, g1,g5,g10, p1+iri,p10+iri"
same,Nuclear Buds (NBs) Mean (NBs)1000 ± SD,[3],"8.00 ± 1.41 c,p1,p5,p10,g1,g5,g10, p1+iri,p10+iri"
same,Nuclear Buds (NBs) Total (BNNB)4000,[3],"32 c,p1,p5,p10, g1,g5,g10, p1+iri, p10+iri"
same,Nuclear Buds (NBs) Total (NBs)4000,[3],"32 c,p1,p5, p10,g1,g5, g10, p1+iri, p10+iri"
same,Nucleoplasmic Bridges (NPBs) Mean (BNNPB)1000 ± SD,[3],0
same,Nucleoplasmic Bridges (NPBs) Mean (NPBs)1000 ± SD,[3],0
same,Nucleoplasmic Bridges (NPBs) Total (BNNPB)4000,[3],0
same,Nucleoplasmic Bridges (NPBs) Total (NPBs)4000,[3],0
same,Micronuclei (MNi) Mean (MNi)1000 ± SD,"5× + IRI 9.0 mg/L, propolis 6.8 mg/L, galangin […], listed as galangin",11.25
same,Distribution of BNMN Cells with 1 MN,[4],9
same,Distribution of BNMN Cells with 2 MN,[4],0
same,Distribution of BNMN Cells with 3 MN,[4],0
same,Distribution of BNMN Cells with 4 MN,[4],0
same,Distribution of BNNB Cells with 1 NB,[4],9
same,Distribution of BNNB Cells with 2 NB,[4],0
same,Distribution of BNNPB Cells with 1 NPB,[4],0
same,Distribution of BNNPB Cells with 2 NPB,[4],0
same,Micronuclei (MNi) Mean (BNMN)1000 ± SD,[4],2.25 ± 0.50
same,Micronuclei (MNi) Mean (MNi)1000 ± SD,[4],2.25 ± 0.50
same,Micronuclei (MNi) Total (BNMN)4000,[4],9
same,Micronuclei (MNi) Total (MNi)4000,[4],9
same,Nuclear Buds (NBs) Mean (BNNB)1000 ± SD,[4],2.25 ± 0.96
same,Nuclear Buds (NBs) Mean (NBs)1000 ± SD,[4],2.25 ± 0.96
same,Nuclear Buds (NBs) Total (BNNB)4000,[4],9
same,Nuclear Buds (NBs) Total (NBs)4000,[4],9
same,Nucleoplasmic Bridges (NPBs) Mean (BNNPB)1000 ± SD,[4],0
same,Nucleoplasmic Bridges (NPBs) Mean (NPBs)1000 ± SD,[4],0
